According to patent US11278530B2, “Polycyclic amides as muscarinic M1 receptor positive allosteric modulators” (SUVEN LIFE SCIENCES LIMITED, priority 2017, dated 2022):

Molecular target: T1, recombinant human Muscarinic M1 receptor (Homo sapiens, UniProt P11229)
T1 sequence (P11229 1-460): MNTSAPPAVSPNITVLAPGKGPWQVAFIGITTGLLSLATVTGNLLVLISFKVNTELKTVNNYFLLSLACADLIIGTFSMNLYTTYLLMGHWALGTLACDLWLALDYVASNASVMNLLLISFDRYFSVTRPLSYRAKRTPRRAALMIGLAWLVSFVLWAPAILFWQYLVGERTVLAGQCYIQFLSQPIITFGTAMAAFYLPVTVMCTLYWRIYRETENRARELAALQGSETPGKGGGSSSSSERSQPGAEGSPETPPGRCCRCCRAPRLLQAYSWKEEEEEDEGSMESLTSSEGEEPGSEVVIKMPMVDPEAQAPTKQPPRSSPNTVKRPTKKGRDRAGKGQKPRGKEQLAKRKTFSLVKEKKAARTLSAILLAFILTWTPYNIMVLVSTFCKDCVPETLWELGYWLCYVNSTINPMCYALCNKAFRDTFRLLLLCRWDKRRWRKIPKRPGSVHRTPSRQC
Test: Allosteric potency EC50 for Muscarinic M1 receptor, CHO pCRE-Luc reporter cell-based assay with EC20 of acetylcholine
Conditions: CHO cells, human M1, luciferase reporter, in presence of EC20 of acetylcholine, 4 h
Description: Determination of allosteric potency EC50 values for Muscarinic M1 receptor:
A stable CHO cell line expressing recombinant human Muscarinic M1 receptor and pCRE-Luc reporter system was used for cell-based assay. The assay offers a non-radioactive based approach to determine binding of a compound to GPCRs. In this specific assay, the level of intracellular cyclic AMP which is modulated by activation or inhibition of the receptor is measured. The recombinant cells harbor luciferase reporter gene under the control of cAMP response element.
The above cells were grown in 96 well clear bottom white plates in Hams F12 medium containing 10% fetal bovine serum (FBS). Prior to the addition of compounds or standard agonist, cells were serum starved overnight. Increasing concentrations of test compounds were added along with EC20 of acetylcholine in OptiMEM medium to the cells. The incubation was continued at 37° C. in CO2 incubator for 4 h. Medium was removed and cells were washed with phosphate buffered saline. The cells were lysed and luciferase activity was measured in a Luminometer. Luminescence counts in each concentrations of test item were normalized to the acetylcholine induced maximum response and the data was analyzed using Graphpad software. EC50 values of the compounds were defined as the concentration required in stimulating the luciferase activity by 50% in presence of EC20 of acetylcholine.

Structure (SMILES) | EC50 [µM]
Cc1c(Cc2ccccc2F)cc(C(=O)N[C@H]2CCCC[C@@H]2O)c2ncccc12 [Example 5, N-(cis-1S,2S-2-Hydroxycyclohexyl)-6-(2-fluorobenzyl)-5-methylquinoline-8-carboxamide] | 2.34
Cc1c(Cc2ccc(F)c(F)c2)cc(C(=O)N[C@@H]2CCCC[C@H]2O)c2nc[nH]c12 [Example 34, N-(cis-1S,2S-2-Hydroxycyclohexyl)-7-methyl-6-[3,4-difluorobenzyl]-1H-benzimidazole-4-carboxamide] | 2.28
O=C(N[C@H]1CCCC[C@@H]1O)c1cc(Cc2ccc(-c3ccccc3)cc2)cn2ccnc12 [Example 24, N-(cis-1S,2S-2-Hydroxycyclohexyl)-6-(4-phenyl-benzyl)-imidazo[1,2-a]pyridine-8-carboxamide] | 3.91
Cc1c(Cc2cccc(F)c2F)cc(C(=O)N[C@@H]2CCCC[C@H]2O)c2nc[nH]c12 [Example 33, N-(cis-1S,2S-2-Hydroxycyclohexyl)-7-methyl-6-[2,3-difluorobenzyl]-1H-benzimidazole-4-carboxamide] | 3.66
Cc1c(Cc2ccnc(F)c2)cc(C(=O)N[C@H]2CCCC[C@@H]2O)c2ncccc12 [Example 4, N-(cis-1S,2S-2-Hydroxycyclohexyl)-6-(2-fluoropyridin-4-ylmethyl)-5-methylquinoline-8-carboxamide] | 0.96
Cc1c(Cc2ccc(-c3cnn(C)c3)cc2)cc(C(=O)N[C@@H]2CCCC[C@H]2O)c2c1ncn2C [Example 42, N-(cis-1S,2S-2-Hydroxycyclohexyl)-3,7-dimethyl-6-[4-(1-methyl-1H-pyrazol-4-yl)-benzyl]-3H-benzimidazole-4-carboxamide] | 10
Cc1nc2c(C(=O)N[C@H]3CCCC[C@@H]3O)cc(Cc3ccc(-c4cscn4)cc3)c(C)c2[nH]1 [Example 40, N-(cis-1S,2S-2-Hydroxycyclohexyl)-2,7-dimethyl-6-(4-thiazol-4-yl-benzyl)-1H-benzimidazole-4-carboxamide] | 1.5
Cc1nc2c(C(=O)N[C@H]3CCCC[C@@H]3O)cc(Cc3ccc(-n4cccn4)cc3)c(C)c2[nH]1 [Example 38, N-(cis-1S,2S-2-Hydroxycyclohexyl)-2,7-dimethyl-6-(4-pyrazol-1-yl-benzyl)-1H-benzimidazole-4-carboxamide] | 0.694
Cc1c(Cc2ccc(Cl)nc2)cc(C(=O)NC2CCOC[C@@H]2O)c2ncccc12 (stereo partly drawn) [Example 3, N-(cis-3S,4S-3-Hydroxytetrahydropyran-4-yl)-6-(2-chloropyridin-5-ylmethyl)-5-methylquinoline-8-carboxamide] | 1.24
Cc1c(Cc2ccc(-c3cnn(C)c3)cc2F)cc(C(=O)N[C@@H]2CCCC[C@H]2O)c2c1ncn2C [Example 41, N-(cis-1S,2S-2-Hydroxycyclohexyl)-3,7-dimethyl-6-[2-fluoro-4-(1-methyl-1H-pyrazol-4-yl)-benzyl]-3H-benzimidazole-4-carboxamide] | 1.06
Cc1c(Cc2ccc(-c3cscn3)cc2)cc(C(=O)N[C@@H]2CCCC[C@H]2O)c2nc[nH]c12 [Example 32, N-(cis-1S,2S-2-Hydroxycyclohexyl)-7-methyl-6-[4-(thiazol-4-yl)-benzyl]-1H-benzimidazole-4-carboxamide] | 0.516
Cc1nc2c(C(=O)N[C@H]3CCCC[C@@H]3O)cc(Cc3ccc(-c4cnn(C)c4)cc3)c(C)c2[nH]1 [Example 39, N-(cis-1S,2S-2-Hydroxycyclohexyl)-2,7-dimethyl-6-[4-(1-methyl-1H-pyrazol-4-yl)-benzyl]-1H-benzimidazole-4-carboxamide] | 0.895
Cn1cc(-c2ccc(Cc3cc(C(=O)N[C@H]4CCCC[C@@H]4O)c4[nH]cnc4c3)c(F)c2F)cn1 [Example 37, N-(cis-1S,2S-2-Hydroxycyclohexyl)-6-[2,3-difluoro-4-(1-methyl-1H-pyrazol-4-yl)-benzyl]-1H-benzimidazole-4-carboxamide] | 0.597
Cn1cc(-c2ccc(Cc3cc(C(=O)N[C@H]4CCCC[C@@H]4O)c4nccn4c3)c(F)c2F)cn1 [Example 21, N-(cis-1S,2S-2-Hydroxycyclohexyl)-6-[2,3-difluoro-4-(1-methyl-1H-pyrazol-4-yl)-benzyl]-imidazo[1,2-a]pyridine-8-carboxamide] | 1.05

Stronger by EC50, values ahead:

EC50 [µM] | Structure (SMILES)
0.258 | Cc1c(Cc2ccc(-c3cscn3)cc2)cc(C(=O)N[C@H]2CCCC[C@@H]2O)c2ncccc12 [Example 12, N-(cis-1S,2S-2-Hydroxycyclohexyl)-6-(4-thiazol-4-yl-benzyl)-5-methylquinoline-8-carboxamide]
0.232 | Cc1c(Cc2ccc(-c3cnn(C)c3)nc2)cc(C(=O)N[C@H]2CCCC[C@@H]2O)c2ncccc12 [Example 7, N-(cis-1S,2S-2-Hydroxycyclohexyl)-6-[2-(1-methyl-1H-pyrazol-4-yl)-pyridin-5-ylmethyl]-5-methylquinoline-8-carboxamide]
0.151 | Cc1c(Cc2ccc(-c3cnn(C)c3)cc2F)cc(C(=O)N[C@@H]2CCCC[C@H]2O)c2nc[nH]c12 [Example 30, N-(cis-1S,2S-2-Hydroxycyclohexyl)-7-methyl-6-[2-fluoro-4-(1-methyl-1H-pyrazol-4-yl)-benzyl]-1H-benzimidazole-4-carboxamide]
0.237 | Cc1c(Cc2ccc(-c3cnn(C)c3)nc2)cc(C(=O)N[C@@H]2CCCC[C@H]2O)c2nc[nH]c12 [Example 35, N-(cis-1S,2S-2-Hydroxycyclohexyl)-7-methyl-6-[6-(1-methyl-1H-pyrazol-4-yl)-pyridin-3-ylmethyl]-1H-benzimidazole-4-carboxamide]
0.178 | Cc1c(Cc2ccc(-n3cccn3)cc2)cc(C(=O)N[C@H]2CCCC[C@@H]2O)c2nccn12 [Example 19, N-(cis-1S,2S-2-Hydroxycyclohexyl)-5-methyl-6-(4-pyrazol-1-yl-benzyl)-imidazo[1,2-a]pyridine-8-carboxamide]
0.449 | Cn1cc(-c2ccc(Cc3cc(C(=O)N[C@@H]4CCCC[C@H]4O)c4nc[nH]c4c3)cc2)cn1 [Example 29, N-(cis-1S,2S-2-Hydroxycyclohexyl)-6-[4-(1-methyl-1H-pyrazol-4-yl)-benzyl]-1H-benzimidazole-4-carboxamide]
0.249 | Cc1c(Cc2ccc(-c3cscn3)cc2)cc(C(=O)N[C@H]2CCOC[C@@H]2O)c2ncccc12 [Example 13, N-(cis-3S,4S-3-Hydroxytetrahydropyran-4-yl)-6-(4-thiazol-4-yl-benzyl)-5-methylquinoline-8-carboxamide]
0.208 | Cc1c(Cc2ccc(-c3cnn(C)c3)nc2)cc(C(=O)N[C@@H]2CCCC[C@H]2O)c2c1ncn2C [Example 44, N-(cis-1S,2S-2-Hydroxycyclohexyl)-3,7-dimethyl-6-[6-(1-methyl-1H-pyrazol-4-yl)-pyridin-3-ylmethyl]-3H-benzimidazole-4-carboxamide]
0.299 | Cc1cc2c(C)c(Cc3ccc(-c4cnn(C)c4)cc3)cc(C(=O)N[C@H]3CCCC[C@@H]3O)c2o1 [Example 46, N-(cis-1S,2S-2-Hydroxycyclohexyl)-2,4-dimethyl-5-[4-(1-methyl-1H-pyrazol-4-yl)-benzyl]-benzofuran-7-carboxamide]
0.028 | Cc1c(Cc2ccc(-c3cnn(C)c3)cc2F)cc(C(=O)N[C@H]2CCCC[C@@H]2O)c2nccn12 [Example 20, N-(cis-1S,2S-2-Hydroxycyclohexyl)-5-methyl-6-[2-fluoro-4-(1-methyl-1H-pyrazol-4-yl)-benzyl]-imidazo[1,2-a]pyridine-8-carboxamide]
0.105 | Cc1c(Cc2ccc(-c3cnn(C)c3)cc2)cc(C(=O)N[C@H]2CCCC[C@@H]2O)c2nc[nH]c12 [Example 28, N-(cis-1S,2S-2-Hydroxycyclohexyl)-7-methyl-6-[4-(1-methyl-1H-pyrazol-4-yl)-benzyl]-1H-benzimidazole-4-carboxamide]
0.185 | Cc1c(Cc2ccc(-c3cnn(C)c3)c(F)c2)cc(C(=O)N[C@H]2CCCC[C@@H]2O)c2ncccc12 [Example 9, N-(cis-1S,2S-2-Hydroxycyclohexyl)-6-[3-fluoro-4-(1-methyl-1H-pyrazol-4-yl)-benzyl]-5-methylquinoline-8-carboxamide]
0.444 | Cn1cc(-c2ccc(Cc3cc(C(=O)N[C@H]4CCCC[C@@H]4O)c4nccn4c3)cc2)cn1 [Example 25, N-(cis-1S,2S-2-Hydroxycyclohexyl)-6-[4-(1-methyl-1H-pyrazol-4-yl)-benzyl]-imidazo[1,2-a]pyridine-8-carboxamide]
0.465 | Cc1c(Cc2ccc(-c3cnn(C)c3)c(F)c2F)cc(C(=O)N[C@H]2CCCC[C@@H]2O)c2[nH]cnc12 [Example 36, N-(cis-1S,2S-2-Hydroxycyclohexyl)-7-methyl-6-[2,3-difluoro-4-(1-methyl-1H-pyrazol-4-yl)-benzyl]-1H-benzimidazole-4-carboxamide]
